Series [1] relates to Smn protein in SMA patient fibroblast cells (GM03813). Briefly: Smn protein assay in cultured cells (SMN HTRF). The series is classed as cell-based, human. As to conditions: SMA patient fibroblast cells, 48 hours; for EC1.5x for Smn protein expression: 7-point concentration curve, SMN HTRF, concentration producing 1.5 times Smn protein vs DMSO vehicle control; for maximum fold (Fold) increase of Smn protein: 7-point concentration data, fold relative to vehicle control. Put shortly:
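Smn protein quantified by HTRF with anti-SMN d2/kryptate pair, 665/620 nm ratio blank-corrected, in RIPA lysates of GM03813 fibroblasts after 48 h compound exposure (7 concentrations, 3.16-fold steps, triplicates). Values: concentration producing 1.5× vehicle Smn level, and maximal fold increase.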

Series [2] deals with SMN2 minigene mRNA (SMN2-A minigene) in HEK293H cells. The series can be described thus: SMN2 minigene mRNA splicing RT-qPCR assay in cultured cells. As to conditions: Homo sapiens, HEK293-H; concentration increasing full length SMN2 mRNA 1.5-fold relative to vehicle-treated cells; HEK293H cells with SMN2-A minigene, 24 hours, 7-point concentration data; read-out: EC1.5x for production of full length SMN2 mRNA. Format: cell-based, human. Summed up:
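EC1.5× = concentration raising full-length SMN2 minigene mRNA 1.5-fold over vehicle, from 7-point curves in duplicate. Stably transfected HEK293H cells exposed 24 h at 37 °C; lysates assayed by multiplex RT-qPCR, minigene FL signal normalized to GAPDH via modified ΔΔCt.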

Consider `Cc1cn2cc(-c3cc(=O)n4cc(C5CCNCC5)ccc4n3)ccc2n1` [Compound 438, 2-(2-methylimidazo[1,2-a]pyridin-6-yl)-7-(piperidin-4-yl)-4H-pyrido[1,2-a]pyrimidin-4-one], for which the melting point fell in the range of 298 to 300 °C. Further, in series [1], the “EC1.5x for Smn protein expression” value is reported as “**** (an EC1.5x≤0.3 μM is indicated by four stars (****))” and the “maximum fold (Fold) increase of Smn protein” value (“maximum fold (Fold) increase” for short) is recorded as “***** (a fold increase >1.65 is indicated by five stars (*****))”. Further, in series [2], the EC (1.5-fold increase) is less than 0.1 µM.
The compound `Cc1cn2nc(-c3cc(=O)n4cc(C#CCN)ccc4n3)cc2c(C)n1` [Compound 740, 7-(3-aminoprop-1-yn-1-yl)-2-(4,6-dimethylpyrazolo[1,5-a]pyrazin-2-yl)-4H-pyrido[1,2-a]pyrimidin-4-one] yielded a melting point of 242 to 244 °C. Further, in series [1], the “EC1.5x for Smn protein expression” value is “*** (an EC1.5× between >0.3 μM and ≤1 μM is indicated by three stars (***))”; the “maximum fold (Fold) increase” value is on record as “***** (a fold increase >1.65 is indicated by five stars (*****))”. Moreover, the EC (1.5-fold increase) in series [2] lay within 0.3 to 1 µM.
In turn, `CCc1cc(-c2cc(=O)n3cc(C4CCN(CCO)CC4)ccc3n2)cn2cc(C)nc12` [Compound 699, 2-(8-ethyl-2-methylimidazo[1,2-a]pyridin-6-yl)-7-[1-(2-hydroxyethyl)piperidin-4-yl]-4H-pyrido[1,2-a]pyrimidin-4-one] returned a melting point of 244 to 247 °C. For the same compound, in series [1], the “EC1.5x for Smn protein expression” value is given as “**** (an EC1.5x≤0.3 μM is indicated by four stars (****))” and the “maximum fold (Fold) increase” value is reported as “***** (a fold increase >1.65 is indicated by five stars (*****))”. Moreover, the EC (1.5-fold increase) in series [2] was less than 0.1 µM.
On to `O=c1cc(-c2cncc(F)c2)nc2ccc(N3CCNCC3)cn12` [Cpd 92, 2-(5-fluoropyridin-3-yl)-7-(piperazin-1-yl)-4H-pyrido[1,2-a]pyrimidin-4-one], for which the melting point lay in the range of 201 to 208 °C. The “maximum fold (Fold) increase” value in series [1] was “** (a fold increase between >1.2 and ≤1.35 is indicated by two stars (**))”. In addition, in series [2], the EC (1.5-fold increase) lay in the range of 1 to 3 µM.
Consider `Cc1nc2ccc(-c3cc(=O)n4cc(N5C[C@@H](C)N[C@@H](C)C5)ccc4n3)cc2o1` [Compound 172, 7-[(3R,5S)-3,5-dimethylpiperazin-1-yl]-2-(2-methyl-1,3-benzoxazol-6-yl)-4H-pyrido[1,2-a]pyrimidin-4-one], for which the melting point was 233 to 235 °C. Besides, in series [1], the “EC1.5x for Smn protein expression” value is listed as “**** (an EC1.5x≤0.3 μM is indicated by four stars (****))” and the “maximum fold (Fold) increase” value is “***** (a fold increase >1.65 is indicated by five stars (*****))”. Moreover, in series [2], the EC (1.5-fold increase) is less than 0.1 µM.
On the same counts, the results for `CCc1nc(C)cn2nc(-c3cc(=O)n4cc(N5CCN(CCCF)[C@H](C)C5)ccc4n3)cc12` [Compound 667, 2-(4-ethyl-6-methylpyrazolo[1,5-a]pyrazin-2-yl)-7-[(3R)-4-(3-fluoropropyl)-3-methylpiperazin-1-yl]-4H-pyrido[1,2-a]pyrimidin-4-one] are 244 to 246 °C, “**** (an EC1.5x≤0.3 μM is indicated by four stars (****))”, “***** (a fold increase >1.65 is indicated by five stars (*****))” and less than 0.1 µM.
On to `COc1ccc(-c2cc(=O)n3cc(N4CCN[C@H](C)C4)ccc3n2)cc1F` [Compound 86, 2-(3-fluoro-4-methoxyphenyl)-7-[(3R)-3-methylpiperazin-1-yl]-4H-pyrido[1,2-a]pyrimidin-4-one], for which the melting point is 175 to 178 °C. For the same compound, in series [1], the “EC1.5x for Smn protein expression” value is given as “**** (an EC1.5x≤0.3 μM is indicated by four stars (****))”; the “maximum fold (Fold) increase” value was “**** (a fold increase between >1.5 and ≤1.65 is indicated by four stars (****))”. The EC (1.5-fold increase) in series [2] is 0.1 to 0.3 µM.
Compound `Cn1ncc2cc(-c3cc(=O)n4cc(C5=CCNCC5)ccc4n3)ccc21` [Cpd 443, 2-(1-methyl-1H-indazol-5-yl)-7-(1,2,3,6-tetrahydropyridin-4-yl)-4H-pyrido[1,2-a]pyrimidin-4-one] came in with a melting point of 200 to 203 °C. Further, in series [1], the “EC1.5x for Smn protein expression” value is “**** (an EC1.5x≤0.3 μM is indicated by four stars (****))” and the “maximum fold (Fold) increase” value is given as “***** (a fold increase >1.65 is indicated by five stars (*****))”. The EC (1.5-fold increase) in series [2] is less than 0.1 µM.
For `COc1ccc(-c2cc(=O)n3cc(N[C@@H]4CCN(C)C4)ccc3n2)cc1F` [Compound 225, 2-(3-fluoro-4-methoxyphenyl)-7-{[(3R)-1-methylpyrrolidin-3-yl]amino}-4H-pyrido[1,2-a]pyrimidin-4-one], the melting point fell in the range of 197 to 202 °C. The “maximum fold (Fold) increase” value in series [1] is “* (A maximum fold increase of ≤1.2 is indicated by one star (*))”. Besides, the EC (1.5-fold increase) in series [2] was in the range of 1 to 3 µM.
Compound `COc1ccc(-c2cc(=O)n3cc(O[C@H]4CCNC4)ccc3n2)cc1OC` [Compound 236, 2-(3,4-dimethoxyphenyl)-7-[(3S)-pyrrolidin-3-yloxy]-4H-pyrido[1,2-a]pyrimidin-4-one] had a melting point of 164 to 166 °C. Also, in series [1], the “EC1.5x for Smn protein expression” value was “* (An EC1.5× for Smn protein expression between >3 μM and ≤10 μM is indicated by one star (*))”; the “maximum fold (Fold) increase” value is “*** (a fold increase between >1.35 and ≤1.5 is indicated by three stars (***))”. The EC (1.5-fold increase) in series [2] was 1 to 3 µM.
`Cc1cn2cc(-c3cc(=O)n4cc(C5=CCNCC5)ncc4n3)cc2c(C)n1.Cl.Cl` [Compound 413, 2-(1,3-dimethylpyrrolo[1,2-a]pyrazin-7-yl)-7-(1,2,3,6-tetrahydropyridin-4-yl)-4H-pyrazino[1,2-a]pyrimidin-4-one hydrochloride (1:2)] displayed a melting point of more than 300 °C. In series [1], the “EC1.5x for Smn protein expression” value is listed as “**** (an EC1.5x≤0.3 μM is indicated by four stars (****))”; the “maximum fold (Fold) increase” value is “**** (a fold increase between >1.5 and ≤1.65 is indicated by four stars (****))”. Besides, the EC (1.5-fold increase) in series [2] was less than 0.1 µM.
As for `CCc1nc(C)cn2nc(-c3cc(=O)n4cc(N5CCN[C@H](C)C5)ccc4n3)cc12` [Compound 661, 2-(4-ethyl-6-methylpyrazolo[1,5-a]pyrazin-2-yl)-7-[(3R)-3-methylpiperazin-1-yl]-4H-pyrido[1,2-a]pyrimidin-4-one], the melting point lay in the range of 185 to 188 °C. Further, in series [1], the “EC1.5x for Smn protein expression” value is reported as “**** (an EC1.5x≤0.3 μM is indicated by four stars (****))” and the “maximum fold (Fold) increase” value was “***** (a fold increase >1.65 is indicated by five stars (*****))”. Also, the EC (1.5-fold increase) in series [2] is less than 0.1 µM.
For the compound `O=c1cc(-c2ccc(O)c(OC(F)(F)F)c2)nc2ccc(N3CCNCC3)cn12` [Cpd 82, 2-[4-hydroxy-3-(trifluoromethoxy)phenyl]-7-(piperazin-1-yl)-4H-pyrido[1,2-a]pyrimidin-4-one], the melting point lay within 245 to 248 °C. Further, in series [1], the “EC1.5x for Smn protein expression” value is “** (an EC1.5× between >1 μM and ≤3 μM is indicated by two stars (**))”; the “maximum fold (Fold) increase” value is given as “***** (a fold increase >1.65 is indicated by five stars (*****))”. In addition, in series [2], the EC (1.5-fold increase) was in the range of 1 to 3 µM.
Regarding `CN(C)c1ccc(-c2cc(=O)n3cc(C4CCNCC4)ccc3n2)cn1` [Compound 465, 2-[6-(dimethylamino)pyridin-3-yl]-7-(piperidin-4-yl)-4H-pyrido[1,2-a]pyrimidin-4-one], the melting point was 208 to 210 °C. Moreover, in series [1], the “maximum fold (Fold) increase” value is “*** (a fold increase between >1.35 and ≤1.5 is indicated by three stars (***))”. For the same compound, the EC (1.5-fold increase) in series [2] fell in the range of 0.3 to 1 µM.
In turn, `CCc1nc(C)cn2nc(-c3cc(=O)n4cc(C5CCN(C6CCC6)CC5)cc(C)c4n3)cc12` [Compound 792, 7-(1-cyclobutylpiperidin-4-yl)-2-(4-ethyl-6-methylpyrazolo[1,5-a]pyrazin-2-yl)-9-methyl-4H-pyrido[1,2-a]pyrimidin-4-one] registered a melting point of 231 to 237 °C. Besides, in series [1], the “EC1.5x for Smn protein expression” value is “*** (an EC1.5× between >0.3 μM and ≤1 μM is indicated by three stars (***))”; the “maximum fold (Fold) increase” value is listed as “***** (a fold increase >1.65 is indicated by five stars (*****))”. In series [2], the EC (1.5-fold increase) is less than 0.1 µM.
The compound `CCc1nc(C)cn2nc(-c3cc(=O)n4cc(C5CCN(C6COC(C)(C)OC6)CC5)ccc4n3)cc12` [Compound 693, 7-[1-(2,2-dimethyl-1,3-dioxan-5-yl)piperidin-4-yl]-2-(4-ethyl-6-methylpyrazolo[1,5-a]pyrazin-2-yl)-4H-pyrido[1,2-a]pyrimidin-4-one] had a melting point of 236 to 238 °C. For the same compound, in series [1], the “EC1.5x for Smn protein expression” value is “** (an EC1.5× between >1 μM and ≤3 μM is indicated by two stars (**))”; the “maximum fold (Fold) increase” value is “**** (a fold increase between >1.5 and ≤1.65 is indicated by four stars (****))”. Further, the EC (1.5-fold increase) in series [2] was in the range of 1 to 3 µM.
